Test results from ChEMBL document CHEMBL1201862, “PubChem BioAssay data set” (2004).
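1) Cells in 96-well plates. 2) Compound, 48 h, 5 concentrations. 3) Linear interpolation between surrounding doses. 4) Unreached endpoint = highest concentration. At the GI50, growth is halved.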 Calls of active or inactive are those of the source. Cut-off read from the data, not from the text of the source: active = GI50 up to about 1.1 µM and inactive = higher.

Assays:
Assay in all cases: DTP human tumour cell line panel, 48 h
[1] = tested on: BT-549
[2] = tested on: DU-145
[3] = tested on: EKVX
[4] = tested on: HCT-116
[5] = tested on: HOP-92
[6] = tested on: IGROV-1
[7] = tested on: M14
[8] = tested on: MOLT-4
[9] = tested on: NCI-H460
[10] = tested on: NCI/ADR-RES
[11] = tested on: OVCAR-3
[12] = tested on: OVCAR-4
[13] = tested on: OVCAR-8
[14] = tested on: RXF 393
[15] = tested on: SF-295
[16] = tested on: SK-MEL-5
[17] = tested on: SNB-19
[18] = tested on: U-251
[19] = tested on: UACC-62
[20] = tested on: UO-31

In the case of Oc1ccnc(SCc2ccc(Cl)cc2)n1, the GI50 [1] is reported as > 100 µM (inactive), the GI50 [2] is reported as > 100 µM (inactive) and the GI50 [3] is reported as > 100 µM (inactive). For the same molecule, the GI50 [4] was > 100 µM (inactive), the GI50 [5] was > 100 µM (inactive) and the GI50 [6] was > 100 µM (inactive). The GI50 [7] was > 100 µM (inactive), the GI50 [8] was 63.7 µM (inactive) and the GI50 [9] was > 100 µM (inactive). The GI50 [10] was > 100 µM (inactive), the GI50 [11] was 57.3 µM (inactive) and the GI50 [12] was > 100 µM (inactive). For the same molecule, the GI50 [13] was > 100 µM (inactive), the GI50 [14] was > 100 µM (inactive) and the GI50 [15] was 87.1 µM (inactive). The GI50 [16] was > 100 µM (inactive), the GI50 [17] was > 100 µM (inactive) and the GI50 [18] was > 100 µM (inactive). For the same molecule, the GI50 [19] was > 100 µM (inactive) and the GI50 [20] was > 100 µM (inactive).
With O=C(O)CSCCc1ccccc1 the GI50 [1] was > 100 µM (inactive), the GI50 [2] was > 100 µM (inactive) and the GI50 [3] was > 100 µM (inactive). The GI50 [4] was > 100 µM (inactive), the GI50 [5] was > 100 µM (inactive) and the GI50 [6] was > 100 µM (inactive). The GI50 [7] was > 100 µM (inactive), the GI50 [8] was > 100 µM (inactive) and the GI50 [9] was > 100 µM (inactive). For the same molecule, the GI50 [10] was > 100 µM (inactive), the GI50 [11] was > 100 µM (inactive) and the GI50 [12] was > 100 µM (inactive). The GI50 [13] was > 100 µM (inactive), the GI50 [14] was > 100 µM (inactive) and the GI50 [15] was > 100 µM (inactive). The GI50 [16] was > 100 µM (inactive), the GI50 [17] was > 100 µM (inactive) and the GI50 [18] was > 100 µM (inactive). The GI50 [19] was > 100 µM (inactive) and the GI50 [20] was > 100 µM (inactive).
With O=C1C=C(OCCCl)C(=O)c2c(O)ccc(O)c21 the GI50 [1] was 0.226 µM (active), the GI50 [2] was 0.29 µM (active) and the GI50 [3] was 1.91 µM (inactive). The GI50 [4] was 0.409 µM (active), the GI50 [5] was 2.15 µM (inactive) and the GI50 [6] was 1.81 µM (inactive). For the same molecule, the GI50 [7] was 0.177 µM (active), the GI50 [8] was 1.72 µM (inactive) and the GI50 [9] was 0.395 µM (active). For the same molecule, the GI50 [10] was 2.56 µM (inactive), the GI50 [11] was 1.06 µM (active) and the GI50 [12] was 1.64 µM (inactive). For the same molecule, the GI50 [13] was 1.94 µM (inactive), the GI50 [14] was 1.92 µM (inactive) and the GI50 [15] was 1.56 µM (inactive). For the same molecule, the GI50 [16] was 0.173 µM (active), the GI50 [17] was 1.02 µM (active) and the GI50 [18] was 1.84 µM (inactive). For the same molecule, the GI50 [19] was 0.228 µM (active) and the GI50 [20] was 1.42 µM (inactive).
With Cc1ccc(-c2[nH]c(=O)n(C3OC(CO)C(O)C(O)C3O)c(=O)c2C#N)cc1 (stereo not given) the GI50 [1] was > 100 µM (inactive), the GI50 [2] was > 100 µM (inactive) and the GI50 [3] was > 100 µM (inactive). The GI50 [4] was > 100 µM (inactive), the GI50 [5] was > 100 µM (inactive) and the GI50 [6] was > 100 µM (inactive). For the same molecule, the GI50 [7] was > 100 µM (inactive), the GI50 [8] was > 100 µM (inactive) and the GI50 [9] was > 100 µM (inactive). The GI50 [10] was > 100 µM (inactive), the GI50 [11] was > 100 µM (inactive) and the GI50 [12] was > 100 µM (inactive). The GI50 [13] was > 100 µM (inactive), the GI50 [14] was > 100 µM (inactive) and the GI50 [15] was > 100 µM (inactive). The GI50 [16] was > 100 µM (inactive), the GI50 [17] was > 100 µM (inactive) and the GI50 [18] was > 100 µM (inactive). The GI50 [19] was > 100 µM (inactive) and the GI50 [20] was > 100 µM (inactive).
For O=C(c1ccsc1)c1cc2c(s1)C(=O)c1ccsc1C2=O, the GI50 [1] was 0.0807 µM (active), the GI50 [2] was 0.159 µM (active) and the GI50 [3] was 0.2 µM (active). The GI50 [4] was 0.195 µM (active), the GI50 [5] was 0.34 µM (active) and the GI50 [6] was 0.204 µM (active). The GI50 [7] was 0.116 µM (active), the GI50 [8] was 0.435 µM (active) and the GI50 [9] was 0.184 µM (active). The GI50 [10] was 0.137 µM (active), the GI50 [11] was 0.0624 µM (active) and the GI50 [12] was 0.177 µM (active). For the same molecule, the GI50 [13] was 0.178 µM (active), the GI50 [14] was 0.178 µM (active) and the GI50 [15] was 0.174 µM (active). The GI50 [16] was 0.0279 µM (active), the GI50 [17] was 0.177 µM (active) and the GI50 [18] was 0.159 µM (active). For the same molecule, the GI50 [19] was 0.194 µM (active) and the GI50 [20] was 0.0893 µM (active).
